Reference: patent publication US12527776B2, “Treatment of ciliopathies using inhibitors of glucosylceramide synthase (GCS)” (GENZYME CORPORATION, priority 2019, dated 2026)

Assays:
Type in all cases: in vivo, human
[1] = test system: plasma GL-1, GL-3, and GM3 concentrations; experiment: Phase 1 Study 2: pharmacodynamic endpoints (plasma GL-1, GL-3, GM3)
Procedure: The study enrolled and randomized 36 healthy adults (19 men and 17 women) (n=9 each to group).
Pharmacodynamic endpoints (plasma GL-1, GL-3, and GM3 concentrations) were assessed on Days 1-5, 8, 11, 13, and 14, at 0 hours […]; and on Day 15, at 24 hours after the Day 14 dose.

[2] = Phase 1 studies: safety and tolerability; details: multiple ascending dose study, vs placebo, any dose
Procedure: In all studies, safety profile was assessed by monitoring treatment-emergent adverse events (TEAEs) through 10 days after last dose of study medication, including serious adverse events [SAEs]), ECG monitoring, laboratory values, and physical examinations.

[3] = Phase 1 Study 1 Part 1: ascending single-dose pharmacokinetics in healthy volunteers
From the text: Compound 2 is also known as venglustat.
(§1) Study 1 was a 2-part single-center trial in healthy adult male volunteers.
Part 1 of the study enrolled and randomized 55 healthy men (placebo, n=14; 2-, 5-, 15, 25-, 50, and 100-mg doses, n=6 each; 150-mg dose, n=5). Eight healthy men participated in Part 2. […]

[4] = Phase 1 Study 1 Part 2: PK with and without a high-fat meal; details: 5 mg single oral dose
From the text: as §1
Part 1 of the study enrolled and randomized 55 healthy men (placebo, n=14; 2-, 5-, 15, 25-, 50, and 100-mg doses, n=6 each; 150-mg dose, n=5). Eight healthy men participated in Part 2.
After a 7-day washout period, participants were crossed over to the other condition.

[5] = across the 3 dose groups (5, 10, 20 mg once daily)

**Q.** With `CC(C)(NC(=O)O[C@@H]1CN2CCC1CC2)c1csc(-c2ccc(F)cc2)n1` [Compound 2, (S)-quinuclidin-3-yl 2-(2-(4-fluorophenyl)thiazol-4-yl)propan-2-ylcarbamate] as the compound, how does the “Mean estimated plasma GL-1 reductions from baseline attributable to Ctrough” value (“Mean estimated plasma GL-1 reductions” below) ([1]; 5 mg group, Ctrough 19.0 ng/mL) read?
**A.** 67.0%

**Q.** What about the “Mean estimated plasma GL-1 reductions” value ([1]; 10 mg group, Ctrough 47.5 ng/mL) of the same compound?
**A.** 74.4%

**Q.** What about the “Mean estimated plasma GL-1 reductions” value ([1]; 20 mg group, Ctrough 69.9 ng/mL) of the same compound?
**A.** 76.3%

**Q.** What about the “subjects with GL-1 below LLOQ” value ([1]; Day 15, 5 mg group (n=9)) of the same compound?
**A.** 3 subjects

**Q.** And the “subjects with GL-3 below LLOQ” value ([1]; Day 15, 5 mg group (n=9))?
**A.** 9 subjects

**Q.** And the “Mean calculated GL-1 reductions from baseline” value (“Mean calculated GL-1 reductions” for short) ([1]; Day 15, 5 mg once daily)?
**A.** 41.9%

**Q.** What about the “subjects with GL-1 below LLOQ” value ([1]; Day 15, 10 mg group (n=9)) of the same compound?
**A.** 5 subjects

**Q.** And the “subjects with GL-3 below LLOQ” value ([1]; Day 15, 10 mg group (n=9))?
**A.** 7 subjects

**Q.** What about the “subjects with GM3 below LLOQ” value ([1]; Day 15, 10 mg group (n=9)) of the same compound?
**A.** 1 subjects

**Q.** And the “Mean calculated GL-1 reductions” value ([1]; Day 15, 10 mg once daily)?
**A.** 69.6%

**Q.** And the “subjects with GL-1 below LLOQ” value ([1]; Day 15, 20 mg group (n=9))?
**A.** 9 subjects

**Q.** What about the “subjects with GL-3 below LLOQ” value ([1]; Day 15, 20 mg group (n=9)) of the same compound?
**A.** 9 subjects

**Q.** What about the “subjects with GM3 below LLOQ” value ([1]; Day 15, 20 mg group (n=9)) of the same compound?
**A.** 2 subjects

**Q.** And the “Mean calculated GL-1 reductions” value ([1]; Day 15, 20 mg once daily)?
**A.** 74.6%

**Q.** What about the “plasma GL-1 levels vs baseline” value [1, 5] of the same compound?
**A.** decreased from baseline time- and dose-dependently

**Q.** What about the “plasma GM3 levels vs baseline” value [1, 5] of the same compound?
**A.** decreased from baseline time- and dose-dependently

**Q.** And the “Day on which maximal sustained GM3 decreases started” value ([1]; all dose groups)?
**A.** 13 days

**Q.** What about the ECG parameters [2] of the same compound?
**A.** no ECG parameters changed statistically significantly

**Q.** And the “CL/F, Geometric mean” value ([3]; single oral dose 2 mg)?
**A.** 6.3 L/h

**Q.** What about the “CL/F, Mean” value ([3]; single oral dose 2 mg) of the same compound?
**A.** 6.43 L/h

**Q.** And the “CL/F, Geometric mean” value ([3]; single oral dose 5 mg)?
**A.** 5.8 L/h

**Q.** And the “CL/F, Mean” value ([3]; single oral dose 5 mg)?
**A.** 5.86 L/h

**Q.** What about the “CL/F, Geometric mean” value ([3]; single oral dose 15 mg) of the same compound?
**A.** 5.6 L/h

**Q.** And the “CL/F, Mean” value ([3]; single oral dose 15 mg)?
**A.** 5.85 L/h

**Q.** What about the “CL/F, Geometric mean” value ([3]; single oral dose 25 mg) of the same compound?
**A.** 5.0 L/h

**Q.** And the “CL/F, Mean” value ([3]; single oral dose 25 mg)?
**A.** 5.18 L/h

**Q.** What about the “CL/F, Geometric mean” value ([3]; single oral dose 50 mg) of the same compound?
**A.** 5.5 L/h

**Q.** What about the “CL/F, Mean” value ([3]; single oral dose 50 mg) of the same compound?
**A.** 5.75 L/h

**Q.** And the “CL/F, Geometric mean” value ([3]; single oral dose 100 mg)?
**A.** 5.3 L/h

**Q.** What about the “CL/F, Mean” value ([3]; single oral dose 100 mg) of the same compound?
**A.** 5.38 L/h

**Q.** What about the “CL/F, Geometric mean” value ([3]; single oral dose 150 mg) of the same compound?
**A.** 5.6 L/h

**Q.** What about the “CL/F, Mean” value ([3]; single oral dose 150 mg) of the same compound?
**A.** 5.80 L/h

**Q.** What about the “median time of maximal plasma concentration (Cmax)” value ([3]; single oral doses of 2 to 150 mg) of the same compound?
**A.** 3 to 5.5 h

**Q.** And the “effect of high-fat meal on exposure compared with fasting” value [4]?
**A.** no effect
